Data taken from US5977065A, “Bacterial nitroreductase for the reduction of CB1954 and analogues thereof to a cytotoxic form” (Cancer Research Campaign Technology Limited, priority 1991, dated 1999).

Experiments:
Type in all cases: biochemical
[1] = target: T1, Walker DT diaphorase (Rattus norvegicus, UniProt P05982); assay: Cofactor ability for the reduction of CB 1954 (FIG. 1); settings: CB 1954 100 μM, reduced cofactor 500 μM
T1 construct: the enzyme isolated from the Walker tumour, EC.1.6.99.2; from tissue; host or cells: Walker tumour (Walker cell)
T1 sequence (P05982 2-274 limits assumed): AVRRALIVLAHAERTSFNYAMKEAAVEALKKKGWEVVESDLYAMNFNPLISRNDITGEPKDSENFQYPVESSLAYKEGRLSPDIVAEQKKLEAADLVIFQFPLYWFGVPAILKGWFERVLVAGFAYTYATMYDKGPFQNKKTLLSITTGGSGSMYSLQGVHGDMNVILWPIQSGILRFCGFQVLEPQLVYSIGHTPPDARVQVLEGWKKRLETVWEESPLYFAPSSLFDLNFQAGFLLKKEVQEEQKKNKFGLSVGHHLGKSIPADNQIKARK
Procedure: (§1) At various times aliquots (10 μl) were injected onto a Partisil SCX (240×4.7 mm) HPLC column and eluted isocratically (2 ml/min) with 100 mM NaH2 PO4. The eluate was continuously monitored for absorption at 320, 260 and 360 nm and the concentration of CB 1954 calculated by integration of the peak corresponding to this compound on the HPLC trace.
(§2) The ability of the nitroreductase enzyme to be able to use a synthetic cofactor in place of NADH or NADPH for the reduction of CB 1954 is shown in FIG. 1. […] Therefore 1,4-dihydro-nicotinic acid riboside is a selective cofactor for the E. coli nitroreductase enzyme and cannot be used by mammalian DT diaphorase.

[2] = target: T2, E. coli nitroreductase (Escherichia coli, UniProt P38489); assay: as above; settings: compared with NADH; CB 1954 100 μM, reduced cofactor 500 μM
T2 construct: endogenous in cells; host or cells: E. coli B cell paste; endogenous enzyme purified by Phenyl-Sepharose and Q-Sepharose chromatography, not recombinant
Procedure: as §1, §2

[3] = target: T3, E. coli B nitroreductase (Escherichia coli, UniProt P38489); assay: Formation of mitomycin C by the nitroreductase upon prodrug VII (HPLC); settings: VII 100 μM, 500 μM NADH, enzyme 5 μg/ml, pH7, 37° C.
T3 construct: endogenous in cells; host or cells: E. coli B cell paste; endogenous enzyme purified by Phenyl-Sepharose and Q-Sepharose chromatography, not recombinant
Procedure: Prodrug VII (100 μM) and cofactor (500 μM NADH) were incubated with enzyme (5 μg/ml E. coli B nitroreductase of Example 1) in 10 mM sodium phosphate buffer (pH7) in air at 37° C. At various times aliquots (10 μl) were injected onto a Partisphere C18 reverse-phase (150×4.7mm) HPLC column and eluted isocratically (2.0 ml/min) with 50% methanol in water. The eluate was continuously monitored for absorption at 260 and 340 nm and the concentration of the drugs calculated by integration of the peak corresponding to the compound on the HPLC trace.

T2 sequence (P38489 whole entry): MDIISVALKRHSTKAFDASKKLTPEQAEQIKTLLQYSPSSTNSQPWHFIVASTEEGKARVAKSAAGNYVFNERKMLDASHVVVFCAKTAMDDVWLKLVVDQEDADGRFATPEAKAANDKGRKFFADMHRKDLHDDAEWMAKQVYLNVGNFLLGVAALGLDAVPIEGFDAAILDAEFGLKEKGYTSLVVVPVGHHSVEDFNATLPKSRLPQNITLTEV
T3 sequence (P38489 whole entry): as above

Structure (SMILES) | ability to act as a cofactor for the reduction of CB 1954 [1] | ability to act as a cofactor for the reduction of CB 1954 [2] | release of mitomycin C from the prodrug [3]
O=C(O)C1=CN([C@@H]2O[C@H](CO)[C@@H](O)[C@H]2O)C=CC1 [1,4-dihydro-nicotinic acid riboside] | cannot utilise | equal efficiency | –
COC12C(COC(N)=O)C3=C(C(=O)C(C)=C(N)C3=O)N1CC1C2N1C(=O)OCc1ccc([N+](=O)[O-])cc1 (stereo not drawn) [VII, N-4-Nitrobenzyloxycarbonyl-mitomycin C] | – | – | Only in the presence of the enzyme is mitomycin C released
